PubChem BioAssay (NCI)
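In this assay, cells in 96-well plates receive the compound at five concentrations for 48 hours. Endpoints are linearly interpolated between the surrounding concentrations. TGI marks complete inhibition of growth.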

Tests used:
Experiment in all cases: NCI tumour cell line growth inhibition, 48 h
A498 renal = tested on: A498 renal
BT-549 breast = tested on: BT-549 breast
SK-MEL-2 melanoma = tested on: SK-MEL-2 melanoma
SN12C renal = tested on: SN12C renal
SNB-19 CNS = tested on: SNB-19 CNS
DLD-1 colon = tested on: DLD-1 colon
DMS 114 small cell lung = tested on: DMS 114 small cell lung
DMS 273 small cell lung = tested on: DMS 273 small cell lung
HOP-18 NSCLC = tested on: HOP-18 NSCLC
KM20L2 colon = tested on: KM20L2 colon
LXFL 529 NSCLC = tested on: LXFL 529 NSCLC
M19-MEL melanoma = tested on: M19-MEL melanoma
RXF-631 renal = tested on: RXF-631 renal
XF 498 CNS = tested on: XF 498 CNS
SNB-78 CNS = tested on: SNB-78 CNS

| Structure (SMILES) | TGI (A498 renal) [µM] | TGI (BT-549 breast) [µM] | TGI (SK-MEL-2 melanoma) [µM] | TGI (SN12C renal) [µM] | TGI (SNB-19 CNS) [µM] | TGI (DLD-1 colon) [µM] | TGI (DMS 114 small cell lung) [µM] | TGI (DMS 273 small cell lung) [µM] | TGI (HOP-18 NSCLC) [µM] | TGI (KM20L2 colon) [µM] | TGI (LXFL 529 NSCLC) [µM] | TGI (M19-MEL melanoma) [µM] | TGI (RXF-631 renal) [µM] | TGI (XF 498 CNS) [µM] | TGI (SNB-78 CNS) [µM] |
| --- | --- | --- | --- | --- | --- | --- | --- | --- | --- | --- | --- | --- | --- | --- | --- |
| COC(=O)c1ccc2c(c1)S/C(=C/c1ccc3ccc4cccc5ccc1c3c45)S2 | > 100 | > 100 | > 100 | > 100 | > 100 |  |  |  |  |  |  |  |  |  |  |
| CC(=O)NC1C(OCc2ccccc2)OC(CO)C(O)C1OC(C)C(=O)NC(C)C(=O)NC(CCC(=O)NCCCCNc1c2ccccc2nc2cccc([N+](=O)[O-])c12)C(N)=O (centres undefined) | 0.297 | 0.531 | 0.393 | 0.313 | 0.242 |  |  |  |  |  |  |  |  |  |  |
| c1cc2nnc1SCCCSc1ccc(nn1)SCCCS2 | > 100 | > 100 | > 86.8 | > 95.6 | > 93.2 |  |  |  |  |  |  |  |  |  |  |
| COC(=O)c1ccc(S)c(S(=O)(=O)Nc2n[nH]c(N)n2)c1 | > 100 | > 100 | > 100 | > 100 | > 100 |  |  |  |  |  |  |  |  |  |  |
| CCOC(=O)C(=CNc1ccc(NC2=NCC(C)S2)cc1)C(=O)OCC (centres undefined) | > 100 | 48.9 | 50.7 | > 100 | > 100 |  |  |  |  |  |  |  |  |  |  |
| COc1ccc(N2C(=O)/C(=C\c3cc(OC)c(OC)c(OC)c3)SC2c2ccccc2)cc1 (centres undefined) | > 100 | > 100 | > 100 | > 100 | > 100 |  |  |  |  |  |  |  |  |  |  |
| O=c1c2cc(S(=O)(=O)O)ccc2nc(COc2ccc(Oc3ccc(Cl)cc3Cl)cc2)n1-c1ccc(Oc2ccc(Cl)cc2)cc1Cl | 57 | 34.3 | 32.2 | 32.9 | 67.7 |  |  |  |  |  |  |  |  |  |  |
| CC1(C)CNCC(C)(OCc2ccccc2)C(=O)NC(C)(C)CNCC(C)(OCc2ccccc2)C(=O)N1 (centres undefined) | > 10 | > 10 | > 10 | > 10 | > 10 |  |  |  |  |  |  |  |  |  |  |
| O=C(/C=C/c1ccc(Oc2cc(C(=O)/C=C/c3ccc(O)cc3)c(O)cc2O)cc1)c1ccc(O)cc1O | 14.1 | 39.3 | 28.2 | 17 | 30.9 |  |  |  |  |  |  |  |  |  |  |
| Oc1ccc2cc(Br)ccc2c1-c1c(O)ccc2ccc(Br)cc12 | 32.1 | 27.9 | 31.4 | 24.3 | 29.3 |  |  |  |  |  |  |  |  |  |  |
| CCOP1(=O)C=C(C)C(Cl)=C(C)C1 (centres undefined) |  |  | 50.4 | 51.5 | > 100 | > 100 | 44.9 | 30.8 | > 100 | > 100 | 44.5 | > 100 | 30.5 | 75.2 |  |
| CCCCCCCC1(N=[N+]=[N-])C(=O)Nc2ccccc2C1=O (centres undefined) | 14 | 30.4 | 32.7 | 34.4 | 32.4 |  |  |  |  |  |  |  |  |  |  |
| C[N+](C)(C)c1ncnc2c1ncn2C1CC(O)C(CO)O1 (centres undefined) | > 100 | > 100 | > 100 | > 100 | > 100 |  |  |  |  |  |  |  |  |  |  |
| CCOC(=O)c1c(C)n(-c2ccc(Cl)cc2)c2c1cc(O)c1[nH]c3c(c12)CCCC3 | > 100 | > 100 | 92.9 | > 100 | > 100 |  |  |  |  |  |  |  |  |  |  |
| O=[N+]([O-])c1ccc(C(=S)Nc2ccccc2)o1 | 32.2 | 14.1 | 7.95 | 6.82 | 17.3 |  |  |  |  |  |  |  |  |  |  |
| CCOC(=O)c1sc2nc(SC)nc3c2c1NCN3c1ccc2c(c1)OCO2 | 87.4 | > 100 | 58.8 | > 100 | 31.2 |  |  |  |  |  |  |  |  |  |  |
| O=C(CCC1C(=O)NC(=S)NC1=O)c1ccc2ccccc2c1 | > 100 |  | > 100 | > 100 | > 100 | > 100 | > 100 | > 100 | > 100 | > 100 | > 100 | > 100 |  |  | > 100 |
| COc1cc2c(c(O)c1OC)C(=O)[C@@H]1CCC(=O)N1C2 | > 100 | > 100 | > 100 | > 100 | > 100 |  |  |  |  |  |  |  |  |  |  |
| CC(=O)C1=CN=C2C(=O)N(c3ccccc3)N(C)C12C (centres undefined) | > 100 | > 100 | > 100 | > 100 | > 100 |  |  |  |  |  |  |  |  |  |  |
| Cc1cn(CCCCC2=NCCCN2)c(=O)[nH]c1=O | > 49.4 | > 20.5 | > 35.9 | > 100 | > 66.2 |  |  |  |  |  |  |  |  |  |  |
| CCOP1(=O)CC(C)=C(Cl)C(O)C1 (centres undefined) | > 100 | > 100 | > 100 | > 100 | > 100 |  |  |  |  |  |  |  |  |  |  |
| COC(=O)[C@]1(NC(=O)c2ccccc2)C[C@H]1C=O | > 100 | > 100 | > 100 | > 100 | > 100 |  |  |  |  |  |  |  |  |  |  |
| O=C(NC1CCN(Cc2ccccc2)CC1)c1ccc(I)cc1 | > 100 | > 100 | > 100 | > 100 | > 100 |  |  |  |  |  |  |  |  |  |  |
| CCOC(=O)c1nc2cc(C(F)(F)F)ccc2nc1Nc1ccc(OC)cc1 | > 100 | > 100 | > 100 | > 100 | > 100 |  |  |  |  |  |  |  |  |  |  |
| NC1CC(=O)c2c1sc(Cl)c2Cl (centres undefined) | > 100 | > 100 | > 100 | > 100 | > 100 |  |  |  |  |  |  |  |  |  |  |
